Biological target: T1, IRAK4 (Homo sapiens, UniProt Q9NWZ3)
T1 construct: 293Tcells expressing HiBiT-tagged IRAK4 were then added into 384-well plates
T1 sequence (Q9NWZ3 1-460): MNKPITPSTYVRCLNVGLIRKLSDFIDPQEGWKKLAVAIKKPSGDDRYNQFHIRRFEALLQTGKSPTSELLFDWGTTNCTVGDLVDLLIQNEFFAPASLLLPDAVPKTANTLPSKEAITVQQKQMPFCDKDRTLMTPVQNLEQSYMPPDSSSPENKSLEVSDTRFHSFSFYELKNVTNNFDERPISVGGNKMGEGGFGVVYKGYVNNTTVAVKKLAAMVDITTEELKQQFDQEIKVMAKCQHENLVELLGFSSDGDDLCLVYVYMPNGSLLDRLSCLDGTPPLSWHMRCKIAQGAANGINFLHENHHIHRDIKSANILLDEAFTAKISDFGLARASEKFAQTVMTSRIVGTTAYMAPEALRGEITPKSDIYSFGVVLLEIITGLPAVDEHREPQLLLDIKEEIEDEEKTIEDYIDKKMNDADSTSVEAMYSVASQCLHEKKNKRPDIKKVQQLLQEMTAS
Test: IRAK4 Degradation Assay, HiBiT Method
Type: cell-based
Settings: 293T cells expressing HiBiT-tagged IRAK4, 6 hours
Method in brief: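 293T cells with HiBiT knocked in at the C-terminus of endogenous IRAK4, 10,000 per well, treated 6 h at 37 °C with an 11-point half-log series ([…]), in duplicate. Remaining IRAK4 read by Nano-Glo HiBiT lytic luminescence against DMSO-only and media-only controls.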

SMILES | DC50
CC(C)Oc1cc2nn(C3CCN(C(=O)CN4CCC(c5ccc(C6CCC(=O)NC6=O)cc5F)CC4)CC3)cc2cc1C(=O)Nc1cccc(C(F)F)n1 (centres unmarked) [Example 63, N-(6-(difluoromethyl)pyridin-2-yl)-2-(1-(2-(4-(4-(2,6-dioxopiperidin-3-yl)-2-fluorophenyl)piperidin-1-yl)acetyl)piperidin-4-yl)-6-isopropoxy-2H-indazole-5-carboxamide] | 10 to 100 nM
CC(C)Oc1cc2nn(C3CCN(C(=O)CN4CCC(c5ccc(NC6CCC(=O)NC6=O)cc5F)CC4)CC3)cc2cc1C(=O)Nc1cccc(C(F)F)n1 (centres unmarked) [Example 64, N-(6-(difluoromethyl)pyridin-2-yl)-2-(1-(2-(4-(4-((2,6-dioxopiperidin-3-yl)amino)-2-fluorophenyl)piperidin-1-yl)acetyl)piperidin-4-yl)-6-isopropoxy-2H-indazole-5-carboxamide] | 500 to 1000 nM
CC(C)Oc1cc2nn(C3CCN(C(=O)CC4(O)CCN(c5ccc(NC6CCC(=O)NC6=O)cc5)CC4)CC3)cc2cc1C(=O)Nc1cccc(C(F)F)n1 (centres unmarked) [Example 65, N-(6-(difluoromethyl)pyridin-2-yl)-2-(1-(2-(1-(4-((2,6-dioxopiperidin-3-yl)amino)phenyl)-4-hydroxypiperidin-4-yl)acetyl)piperidin-4-yl)-6-isopropoxy-2H-indazole-5-carboxamide] | 10 to 100 nM
CC(C)Oc1cc2nn(C3CCN(C(=O)CC4(O)CCN(c5cc(F)c(NC6CCC(=O)NC6=O)cc5F)CC4)CC3)cc2cc1C(=O)Nc1cccc(C(F)F)n1 (centres unmarked) [Example 66, N-(6-(difluoromethyl)pyridin-2-yl)-2-(1-(2-(1-(4-((2,6-dioxopiperidin-3-yl)amino)-2,5-difluorophenyl)-4-hydroxypiperidin-4-yl)acetyl)piperidin-4-yl)-6-isopropoxy-2H-indazole-5-carboxamide] | 10 to 100 nM
CC(C)Oc1cc2nn(C3CCN(C(=O)CC4(O)CCN(c5cc(F)c(C6CCC(=O)NC6=O)cc5F)CC4)CC3)cc2cc1C(=O)Nc1cccc(C(F)F)n1 (centres unmarked) [Example 67, N-(6-(difluoromethyl)pyridin-2-yl)-2-(1-(2-(1-(4-(2,6-dioxopiperidin-3-yl)-2,5-difluorophenyl)-4-hydroxypiperidin-4-yl)acetyl)piperidin-4-yl)-6-isopropoxy-2H-indazole-5-carboxamide] | < 10 nM
CC(C)Oc1cc2nc(C3CCN(C(=O)CC4(O)CCN(c5ccc(NC6CCC(=O)NC6=O)cc5)CC4)CC3)cn2cc1C(=O)Nc1cccc(C(F)(F)F)n1 (centres unmarked) [Example 72, 2-[1-[2-[1-[4-[(2,6-dioxo-3-piperidyl)amino]phenyl]-4-hydroxy-4-piperidyl]acetyl]-4-piperidyl]-7-isopropoxy-N-[6-(trifluoromethyl)-2-pyridyl]imidazo[1,2-a]pyridine-6-carboxamide] | 10 to 100 nM
CC(C)Oc1cc2nc(C3CCN(C(=O)CC4(O)CCN(c5cc(F)c(NC6CCC(=O)NC6=O)cc5F)CC4)CC3)cn2cc1C(=O)Nc1cccc(C(F)(F)F)n1 (centres unmarked) [Example 74, 2-[1-[2-[1-[4-[(2,6-dioxo-3-piperidyl)amino]-2,5-difluoro-phenyl]-4-hydroxy-4-piperidyl]acetyl]-4-piperidyl]-7-isopropoxy-N-[6-(trifluoromethyl)-2-pyridyl]imidazo[1,2-a]pyridine-6-carboxamide] | 10 to 100 nM
CC(C)Oc1cc2nc(C3CCN(C(=O)CC4(O)CCN(c5cc(Cl)c(NC6CCC(=O)NC6=O)cc5Cl)CC4)CC3)cn2cc1C(=O)Nc1cccc(C(F)F)n1 (centres unmarked) [Example 75, 2-[1-[2-[1-[2,5-dichloro-4-[(2,6-dioxo-3-piperidyl)amino]phenyl]-4-hydroxy-4-piperidyl]acetyl]-4-piperidyl]-N-[6-(difluoromethyl)-2-pyridyl]-7-isopropoxy-imidazo[1,2-a]pyridine-6-carboxamide] | 10 to 100 nM
